Experimental data from publication PMC10196118, “Evidence for broad cross-reactivity of the SARS-CoV-2 NSP12-directed CD4^+ T-cell response with pre-primed responses directed against common cold coronaviruses” (Frontiers in Immunology, 2023).

Test system: pre-cultured PBMCs (NSP12-specific T cells)
Experiment: IFN-γ ELISpot with single 15-mer peptides after 11–13 days in vitro peptide-pool T-cell expansion
Format: cell-based, human
Settings: for peptide-specific T-cell response, donor HH-N12-18, post COVID-19 / peptide-specific T-cell response, donor HH-N12-34, post COVID-19 / peptide-specific T-cell response, donor HH-N12-35, post COVID-19 / peptide-specific T-cell response, donor HH-N12-36, post COVID-19 / peptide-specific T-cell response, donor HH-N12-37, post COVID-19 / peptide-specific response, donor HH-N12-18, post COVID-19 / peptide-specific response, donor HH-N12-34, post COVID-19 / peptide-specific response, donor HH-N12-35, post COVID-19 / peptide-specific response, donor HH-N12-36, post COVID-19 / peptide-specific response, donor HH-N12-37, post COVID-19: sample post COVID-19; for peptide-specific T-cell response, donor HH-N12-18, post COVID-19 / peptide-specific T-cell response, donor HH-N12-18, pre COVID-19 / peptide-specific T-cell response, donor HH-N12-34, post COVID-19 / peptide-specific T-cell response, donor HH-N12-34, pre COVID-19 / peptide-specific T-cell response, donor HH-N12-35, post COVID-19 / peptide-specific T-cell response, donor HH-N12-35, pre COVID-19 / peptide-specific T-cell response, donor HH-N12-36, post COVID-19 / peptide-specific T-cell response, donor HH-N12-36, pre COVID-19 / peptide-specific T-cell response, donor HH-N12-37, post COVID-19 / peptide-specific T-cell response, donor HH-N12-37, pre COVID-19: single NSP12 15-mer peptide, 0 = no response; for peptide-specific T-cell response, donor HH-N12-18, pre COVID-19 / peptide-specific T-cell response, donor HH-N12-34, pre COVID-19 / peptide-specific T-cell response, donor HH-N12-35, pre COVID-19 / peptide-specific T-cell response, donor HH-N12-36, pre COVID-19 / peptide-specific T-cell response, donor HH-N12-37, pre COVID-19 / peptide-specific response, donor HH-N12-18, pre COVID-19 / peptide-specific response, donor HH-N12-34, pre COVID-19 / peptide-specific response, donor HH-N12-35, pre COVID-19 / peptide-specific response, donor HH-N12-36, pre COVID-19 / peptide-specific response, donor HH-N12-37, pre COVID-19: sample pre COVID-19; for peptide-specific response, donor HH-N12-18, post COVID-19 / peptide-specific response, donor HH-N12-18, pre COVID-19 / peptide-specific response, donor HH-N12-34, post COVID-19 / peptide-specific response, donor HH-N12-34, pre COVID-19 / peptide-specific response, donor HH-N12-35, post COVID-19 / peptide-specific response, donor HH-N12-35, pre COVID-19 / peptide-specific response, donor HH-N12-36, post COVID-19 / peptide-specific response, donor HH-N12-36, pre COVID-19 / peptide-specific response, donor HH-N12-37, post COVID-19 / peptide-specific response, donor HH-N12-37, pre COVID-19: single NSP12 15-mer peptides

Substance | peptide-specific T-cell response, donor HH-N12-18, post COVID-19 | peptide-specific T-cell response, donor HH-N12-18, pre COVID-19 | peptide-specific T-cell response, donor HH-N12-34, post COVID-19 | peptide-specific T-cell response, donor HH-N12-34, pre COVID-19 | peptide-specific T-cell response, donor HH-N12-35, post COVID-19 | peptide-specific T-cell response, donor HH-N12-35, pre COVID-19 | peptide-specific T-cell response, donor HH-N12-36, post COVID-19 | peptide-specific T-cell response, donor HH-N12-36, pre COVID-19 | peptide-specific T-cell response, donor HH-N12-37, post COVID-19 | peptide-specific T-cell response, donor HH-N12-37, pre COVID-19 | peptide-specific response, donor HH-N12-18, post COVID-19 | peptide-specific response, donor HH-N12-18, pre COVID-19 | peptide-specific response, donor HH-N12-34, post COVID-19 | peptide-specific response, donor HH-N12-34, pre COVID-19 | peptide-specific response, donor HH-N12-35, post COVID-19 | peptide-specific response, donor HH-N12-35, pre COVID-19 | peptide-specific response, donor HH-N12-36, post COVID-19 | peptide-specific response, donor HH-N12-36, pre COVID-19 | peptide-specific response, donor HH-N12-37, post COVID-19 | peptide-specific response, donor HH-N12-37, pre COVID-19
MILSDDAVVCFNSTY [compound 152] | 0 | 0 | 0 | 0 | 0 | 0 | 0 | 0 | 0 | 0 | – | – | – | – | – | – | – | – | – | –
MLKTVYSDVENPHLM [compound 121] | – | – | – | – | – | – | – | – | – | – | 0 | 0 | 0 | 0 | 0 | 0 | 0.052 | 0 | 0 | 0
MRNAGIVGVLTLDNQ [compound 40] | – | – | – | – | – | – | – | – | – | – | 0 | 0 | 0.032 | 0 | 0 | 0 | 0 | 0 | 0 | 0
NFKSVLYYQNNVFMS [compound 157] | 0.3 | 0 | 0 | 0 | 0 | 0 | 0 | 0 | 0 | 0 | – | – | – | – | – | – | – | – | – | –
PNCVNCLDDRCILHC [compound 60] | – | – | – | – | – | – | – | – | – | – | 0 | 0 | 0 | 0 | 0 | 0 | 0.022 | 0 | 0 | 0
Peptide 110: 15-mer peptide of SARS-CoV-2 NSP12, aa 546-560 | – | – | – | – | – | – | – | – | – | – | 0 | 0 | 0.023 | 0 | 0 | 0 | 0 | 0 | 0 | 0
QFCDAMRNAGIVGVL [compound 39] | – | – | – | – | – | – | – | – | – | – | 0 | 0 | 0 | 0 | 0 | 0 | 0 | 0 | 0 | 0
QHEETIYNLLKDCPA [compound 17] | – | – | – | – | – | – | – | – | – | – | 0 | 0 | 0 | 0 | 0 | 0 | 0 | 0 | 0.021 | 0
RIMASLVLARKHTTC [compound 127] | – | – | – | – | – | – | – | – | – | – | 0 | 0.031 | 0 | 0 | 0 | 0.074 | 0 | 0 | 0 | 0.051
RLYECLYRNRDVDTD [compound 146] | – | – | – | – | – | – | – | – | – | – | 0 | 0 | 0.023 | 0 | 0 | 0 | 0 | 0 | 0 | 0.02
SADAQSFLNRVCGVS [compound 1] | – | – | – | – | – | – | – | – | – | – | 0 | 0 | 0 | 0 | 0 | 0 | 0.037 | 0 | 0 | 0
SFLNRVCGVSAARLT [compound 2] | – | – | – | – | – | – | – | – | – | – | 0 | 0 | 0 | 0 | 0 | 0 | 0 | 0 | 0 | 0
TEERLKLFDRYFKYW [compound 56] | – | – | – | – | – | – | – | – | – | – | 0 | 0 | 0 | 0 | 0 | 0.04 | 0.022 | 0 | 0 | 0
TFSNYQHEETIYNLL [compound 16] | – | – | – | – | – | – | – | – | – | – | 0 | 0 | 0 | 0 | 0 | 0 | 0 | 0 | 0 | 0
TNCCRFQEKDEDDNL [compound 11] | – | – | – | – | – | – | – | – | – | – | 0 | 0.035 | 0 | 0 | 0 | 0 | 0 | 0 | 0 | 0
TPGSGVPVVDSYYSL [compound 46] | – | – | – | – | – | – | – | – | – | – | 0 | 0 | 0 | 0 | 0 | 0 | 0 | 0 | 0 | 0
TSTDVVYRAFDIYND [compound 6] | – | – | – | – | – | – | – | – | – | – | 0 | 0 | 0 | 0 | 0 | 0 | 0 | 0 | 0 | 0
